Patent US9751854B2 (Millennium Pharmaceuticals, Inc., priority 2014, dated 2017)

Target: human VPS34 (Homo sapiens (Human), UniProt Q8NEB9)
Assay: Human VPS34 enzyme assay (Adapta TR-FRET ADP detection)
Type: biochemical
Set-up: Percent Inhibition: dose or concentration left out as unconfirmed
Conditions: for IC50: IC50 range class

Sequence of human VPS34 (Q8NEB9 whole entry): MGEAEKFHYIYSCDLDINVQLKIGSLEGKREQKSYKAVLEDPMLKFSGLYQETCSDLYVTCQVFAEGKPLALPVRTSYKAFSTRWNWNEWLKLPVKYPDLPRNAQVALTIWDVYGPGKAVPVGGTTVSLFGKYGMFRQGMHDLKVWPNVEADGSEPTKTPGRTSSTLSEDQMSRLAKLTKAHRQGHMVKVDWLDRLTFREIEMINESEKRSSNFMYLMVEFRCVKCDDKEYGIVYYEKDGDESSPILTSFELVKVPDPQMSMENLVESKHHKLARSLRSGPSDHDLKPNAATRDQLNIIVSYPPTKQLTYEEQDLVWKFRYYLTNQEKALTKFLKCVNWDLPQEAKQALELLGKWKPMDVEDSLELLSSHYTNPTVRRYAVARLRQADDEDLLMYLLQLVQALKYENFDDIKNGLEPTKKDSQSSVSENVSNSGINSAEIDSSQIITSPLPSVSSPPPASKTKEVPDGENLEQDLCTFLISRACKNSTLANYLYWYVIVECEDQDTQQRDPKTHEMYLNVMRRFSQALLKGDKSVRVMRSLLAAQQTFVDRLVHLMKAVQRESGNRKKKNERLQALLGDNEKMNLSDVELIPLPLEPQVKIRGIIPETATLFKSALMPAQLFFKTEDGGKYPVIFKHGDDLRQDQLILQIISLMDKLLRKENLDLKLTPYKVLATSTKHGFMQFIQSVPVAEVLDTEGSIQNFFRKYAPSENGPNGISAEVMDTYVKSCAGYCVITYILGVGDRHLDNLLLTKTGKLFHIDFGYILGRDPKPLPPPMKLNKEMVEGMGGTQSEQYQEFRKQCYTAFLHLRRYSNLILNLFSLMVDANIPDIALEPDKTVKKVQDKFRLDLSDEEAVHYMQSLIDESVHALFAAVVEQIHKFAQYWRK

Row | Structure (SMILES) | IC50 [nM] | Percent Inhibition [%]
1 | CC(=O)Nc1cc(-c2cncc(N(CCO)S(=O)(=O)c3ccc(F)cc3F)c2)ccn1 [Compound I-384, N-(5-{[(2,4-difluorophenyl)sulfonyl](2-hydroxyethyl)amino}-3,4′-bipyridin-2′-yl)acetamide] | > 100 | 
2 | Cc1nccc(Nc2cc(-c3cc(N)c4ccnn4c3)ccn2)n1 [Compound I-480, 6-{2-[(2-methylpyrimidin-4-yl)amino]pyridin-4-yl}pyrazolo[1.5-a]pyridin-4-amine] | 50 to 100 | 
3 | Cc1nccc(Nc2cc(-c3cnc(C)c(Oc4ccccc4)c3)ccn2)n1 [Compound I-475, 6-methyl-N-(2-methylpyrimidin-4-yl)-5-phenoxy-3,4′-bipyridin-2′-amine] | 10 to 50 | 
4 | Cc1nccc(Nc2cc(-c3cnc4c(c3)C(=O)NCC4)ccn2)n1 [Compound I-406, 3-[2-[(2-methylpyrimidin-4-yl)amino]-4-pyridyl]-7,8-dihydro-6H-1,6-naphthyridin-5-one] | > 100 | 
5 | CC(=O)Nc1cc(-c2cnc(C)c(NS(=O)(=O)c3cccc4ccccc34)c2)ccn1 [Compound I-78, N-[6-methyl-5-[(1-naphthylsulfonyl)amino]-3,4′-bipyridin-2′-yl}acetamide] | < 10 | 
6 | Cc1nccc(Nc2cc(-c3cnc(Cl)c(NS(=O)(=O)N(C)C)c3C)ccn2)n1 [Compound I-381, N′-{6-chloro-4-methyl-2′-[(2-methylpyrimidin-4-yl)amino]-3,4′-bipyridin-5-yl}-N,N-dimethylsulfuric diamide] | < 10 | 
7 | CC(=O)Nc1cc(-c2cncc(S(=O)(=O)N3CCC(F)(F)C3)c2)ccn1 [Compound I-118, N-{5-[(3,3-difluoropyrrolidin-1-yl)sulfonyl]-3,4′-bipyridin-2′-yl}acetamide] | 10 to 50 | 
8 | CC(=O)Nc1cc(-c2ccc(S(=O)(=O)Nc3cc(-c4ccnc(NC(C)=O)c4)cnc3C)c(F)c2)ccn1 [Compound I-86, N-(4-{4-[(2′-acetamido-6-methyl-3,4′-bipyridin-5-yl)sulfamoyl]-3-fluorophenyl}pyridin-2-yl)acetamide] | < 10 | 
9 | CNc1ncc(-c2ccnc(Nc3ccncn3)c2)cc1C(=O)N(C)C12CC(C1)C2 [Compound I-222, N-(bicyclo[1.1.1]pent-1-yl)-N-methyl-6-(methylamino)-2′-(pyrimidin-4-ylamino)-3,4′-bipyridine-5-carboxamide] | 10 to 50 | 
10 | CC(=O)Nc1cc(-c2cnc(N)c(C(=O)N(C)C)c2)ccn1 [Compound I-149, 2′-acetamido-6-amino-N,N-dimethyl-3,4′-bipyridine-5-carboxamide] | 10 to 50 | 
11 | COc1ncc(-c2ccnc(Nc3ccnc(C)n3)c2)cc1C(=O)N(C)c1ccc(F)cc1F [Compound I-252, N-(2,4-difluorophenyl)-6-methoxy-N-methyl-2′-[(2-methylpyrimidin-4-yl)amino]-3,4′-bipyridine-5-carboxamide] | 10 to 50 | 
12 | Cc1ncc(-c2ccnc(Nc3ccn(C)n3)c2)cc1NS(=O)(=O)c1ccc(F)cc1F [Compound I-301, 2,4-difluoro-N-{6-methyl-2′-[(1-methyl-1H-pyrazole-3-yl)amino]-3,4′-bipyridin-5-yl]benzenesulfonamide] | 10 to 50 | 
13 | CC(=O)Nc1cc(-c2cnc(C)c(N3CC(NCc4ccccc4)CS3(=O)=O)c2)ccn1 (stereo not drawn) [Compound I-357, N-{5-[4-(benzylamino)-1,1-dioxidoisothiazolidin-2-yl]-6-methyl-3,4′-bipyridin-2′-yl}acetamide] | 10 to 50 | 
14 | CC(=O)Nc1cc(-c2cnc3ccn(S(C)(=O)=O)c3c2)ccn1 [Compound I-33, N-{4-[1-(methylsulfonyl)-1H-pyrrolo[3,2-b]pyridin-6-yl]pyridin-2-yl}acetamide] | 10 to 50 | 
15 | Cc1ncc(-c2ccnc(NC(=O)C3CC3(F)F)c2)cc1NS(=O)(=O)c1ccc(F)cc1F (racemic) [Compound I-16, (rac)-N-(5-{[(2,4-difluorophenyl)sulfonyl]amino}-6-methyl-3,4′-bipyridin-2′-yl)-2,2-difluorocyclopropanecarboxamide] | < 10 | 
16 | CC(=O)Nc1cc(-c2cc(NS(=O)(=O)c3ccc(F)cc3F)c3ccnn3c2)ccn1 [Compound I-404, N-[4-(4-{[(2,4-difluorophenyl)sulfonyl]amino}pyrazolo[1,5-a]pyridin-6-yl)pyridin-2-yl]acetamide] | 10 to 50 | 
17 | Cc1ncc(-c2ccnc(NC(=O)C3CC3)c2)cc1NS(=O)(=O)c1ccc(Cl)cc1F [Compound I-433, N-(5-{[(4-chloro-2-fluorophenyl)sulfonyl]amino}-6-methyl-3,4′-bipyridin-2′-yl)cyclopropanecarboxamide] | 10 to 50 | 
18 | Cc1cc(Nc2cc(-c3cnc(Cl)c(NS(=O)(=O)c4ccc(F)cc4F)c3C)ccn2)ccn1 [Compound I-272, N-{6-chloro-4-methyl-2′-[(2-methylpyridin-4-yl)amino]-3,4′-bipyridin-5-yl}-2,4-difluorobenzenesulfonamide] | 50 to 100 | 
19 | COc1cc(F)c(S(=O)(=O)Nc2cc(-c3ccnc(NC(C)=O)c3)cnc2C)cc1F [Compound I-159, N-(5-{[(2,5-difluoro-4-methoxyphenyl)sulfonyl]amino}-6-methyl-3,4′-bipyridin-2′-yl)acetamide] | < 10 | 
20 | CC(=O)Nc1cc(-c2cnc(C)c(N3CCCS3(=O)=O)c2)ccn1 [Compound I-88, N-[5-(1,1-dioxidoisothiazolidin-2-yl)-6-methyl-3,4′-bipyridin-2′-yl]acetamide] | 10 to 50 | 

Row | Structure (SMILES) | IC50 [nM] | Percent Inhibition [%]
21 | CC(=O)Nc1cc(-c2cnc(C)c(NS(=O)(=O)C3CCCCC3)c2)ccn1 [Compound I-72, N-{5-[(cyclohexylsulfonyl)amino]-6-methyl-3,4′-bipyridin-2′-yl]acetamide] | < 10 | 
22 | CC(=O)Nc1cc(-c2cnc(Cl)c(NS(=O)(=O)c3ccc(Cl)cc3F)c2C)ccn1 [Compound I-399, N-(6-chloro-5-{[(4-chloro-2-fluorophenyl)sulfonyl]amino}-4-methyl-3,4′-bipyridin-2′-yl)acetamide] | 10 to 50 | 
23 | COc1ncc(-c2ccnc(NC(C)=O)c2)cc1S(=O)(=O)NC1CCC1 [Compound I-426, N-[5-(cyclobutylsulfamoyl)-6-methoxy-3,4′-bipyridin-2′-yl]acetamide] | 10 to 50 | 
24 | CC(=O)Nc1cc(-c2cnc(C)c(S(=O)(=O)NC34CC(C3)C4)c2)ccn1 [Compound I-418, N-[5-(bicyclo[1.1.1]pent-1-ylsulfamoyl)-6-methyl-3,4′-bipyridin-2′-yl]acetamide] | 10 to 50 | 
25 | CC(=O)Nc1cc(-c2cnc(C)c(NS(=O)(=O)c3ccccc3C)c2)ccn1 [Compound I-211, N-(6-methyl-5-{[(2-methylphenyl)sulfonyl]amino}-3,4′-bipyridin-2′-yl)acetamide] | < 10 | 
26 | CC(=O)Nc1cc(-c2cnc(N)c(S(=O)(=O)Cc3ccccc3)c2)ccn1 [Compound I-6, N-[6-amino-5-(benzylsulfonyl)-3,4′-bipyridin-2′-yl]acetamide] | 10 to 50 | 
27 | CC(=O)Nc1cc(-c2cnc3c(c2)CCN3)ccn1 [Compound I-67, N-[4-(2,3-dihydro-1H-pyrrolo[2,3-b]pyridin-5-yl)pyridin-2-yl]acetamide] | 50 to 100 | 
28 | Cc1nccc(Nc2cc(-c3cnc(C)c(NC(=O)Nc4ccccc4)c3)ccn2)n1 [Compound I-439, 1-{6-methyl-2′-[(2-methylpyrimidin-4-yl)amino]-3,4′-bipyridin-5-yl}-3-phenylurea] | > 100 | 
29 | CC(=O)Nc1cc(-c2cncc(S(=O)(=O)N3CCC3)c2)ccn1 [Compound I-474, N-[5-(azetidin-1-ylsulfonyl)-3,4′-bipyridin-2′-yl]acetamide] | 10 to 50 | 
30 | CCc1c(-c2ccnc(NC(C)=O)c2)cnc(Cl)c1NS(=O)(=O)c1ccc(F)cc1F [Compound I-469, N-(6-chloro-5-{[(2,4-difluorophenyl)sulfonyl]amino}-4-ethyl-3,4′-bipyridin-2′-yl)acetamide] | 10 to 50 | 
31 | CNS(=O)(=O)Nc1cc(-c2ccnc(NC(C)=O)c2)cnc1C [Compound I-455, N-{6-methyl-5-[(methylsulfamoyl)amino]-3,4′-bipyridin-2′-yl}acetamide] | 10 to 50 | 
32 | CC(=O)Nc1cc(-c2cnc(N)c(C(=O)N3CCCCC3)c2)ccn1 [Compound I-10, N-[6-amino-5-(piperidin-1-ylcarbonyl)-3,4′-bipyridin-2′-yl]acetamide] | < 10 | 
33 | Cc1c(-c2ccnc(N)c2)cnc(Cl)c1NS(=O)(=O)c1ccc(F)cc1F [Compound I-287, N′-(2′-amino-6-chloro-4-methyl-3,4′-bipyridin-5-yl)-2,4-difluorobenzenesulfonamide] | > 100 | 91
34 | CC(=O)Nc1cc(-c2cnc(F)c(NS(=O)(=O)c3ccc(F)cc3F)c2)ccn1 [Compound I-164, N-(5-{[(2,4-difluorophenyl)sulfonyl]amino}-6-fluoro-3,4′-bipyridin-2′-yl)acetamide] | < 10 | 
35 | CCS(=O)(=O)c1cc(-c2ccnc(NC(C)=O)c2)cnc1N [Compound I-69, N-[6-amino-5-(ethylsulfonyl)-3,4′-bipyridin-2′-yl]acetamide] | 10 to 50 | 
36 | CC(=O)Nc1cc(-c2cnc(C)c(NS(=O)(=O)c3cc(F)ccc3F)c2)ccn1 [Compound I-52] | < 10 | >99
37 | CC(=O)Nc1cc(-c2cnc(Cl)c(NS(=O)(=O)c3ccc(C4CC4)cc3F)c2C)ccn1 [Compound I-335, N-(6-chloro-5-{[(4-cyclopropyl-2-fluorophenyl)sulfonyl]amino}-4-methyl-3,4′-bipyridin-2′-yl)acetamide] | 10 to 50 | 
38 | COc1nc(C)nc(Nc2cc(-c3cnc(C)c(NS(=O)(=O)c4ccc(F)cc4F)c3)ccn2)n1 [Compound I-375, 2,4-difluoro-N-{2′-[(4-methoxy-6-methyl-1,3,5-triazin-2-yl)amino]-6-methyl-3,4′-bipyridin-5-yl}benzenesulfonamide] | < 10 | 
39 | CC(=O)Nc1cc(-c2cnc(N)c(S(=O)(=O)NCC3CC3)c2)ccn1 [Compound I-108, N-(6-amino-5-[(cyclopropylmethyl)sulfamoyl]-3,4′-bipyridin-2′-yl]acetamide] | 10 to 50 | 
40 | CC(=O)Nc1cc(-c2cnc(N)c(C(=O)NC3CCOCC3)c2)ccn1 [Compound I-210, 2′-acetamido-6-amino-N-(tetrahydro-2H-pyran-4-yl)-3,4′-bipyridine-5-carboxamide] | 50 to 100 | 
